Paper PMC9820279 (International Journal of Molecular Sciences, 2022)
Read-outs that look alike come from different tables or passages of the source. Each block holds one compound with its values, some of them ahead of it.

Tested on: HBMEC monolayer
[1] = matrix ASFE extract 24 µg/mL, 2 h incubation, n.d = not detected in lower compartment
[2] = matrix ASFE extract 24 µg/mL, 4 h incubation, n.d = not detected in lower compartment

Compound: CC1=CCC2C(C1)C2(C)C (stereo not drawn) [3-Carene]
Te % (SEM) 4 h (human, 4 h, 15 µg/mL): 20.3 (0.9) %

Compound: Cc1c(O)cc2c(c1C)O[C@](C)(CCC[C@H](C)CCC[C@H](C)CCCC(C)C)CC2 [γ-Tocopherol]
Te % (SEM) 2 h: 31.5 (0.8)/27.3 (2.1) % | Te % (SEM) 4 h: 42.0 (0.8)/30.0 (1.6) %

Compound: O=C(O)/C=C/c1ccc(O)c(O)c1 [Caffeic acid]
Te % (SEM) 2 h (human, 2 h, 24 µg/mL): 55.4 (3.7) % | Te % (SEM) 2 h (human, 2 h, 30 µg/mL): 34.8 (1.2) % | Te % (SEM) 4 h (human, 4 h, 24 µg/mL): 68.3(0.3) % | Te % (SEM) 4 h (human, 4 h, 30 µg/mL): 50.1 (3.4) %

Compound: C/C=C/C(=O)C1=C(C)CC(O)CC1(C)C (stereo not drawn) [3-hydroxy-β-damascone]
Te % (SEM) 2 h: 84.5 (3.2) %

Compound: C=C1CC[C@H]2O[C@]2(C)CC[C@@H]2[C@@H]1CC2(C)C [Caryophyllene oxide]
Te % (SEM) 2 h: 67.7 (0.9) %

Compound: O=C(/C=C/c1ccc(O)cc1)O[C@@H](C(=O)O)[C@@H](O)C(=O)O [Coutaric acid]
Detection / transport to lower compartment (brain side) of HBMEC-BBB model (ASFE extract): not detected in the lower compartment

Compound: C=C(C)[C@@H]1CCC2=CC(=O)C[C@@H](C)[C@]2(C)C1 [Nootkatone]
Te % (SEM) 2 h (human): 29.9 (0.9) % | Te % (SEM) 4 h (human): 43.0 (3.4) %

Te % (SEM) 2 h: 52.8 (3.8) % | Te % (SEM) 4 h: 53.8 (2.8) %
Compound: γ-silenene

Compound: C=CC1(C)CCC(=C(C)C)CC1C(=C)C (stereo not drawn) [γ-Elemene]
Te % (SEM) 2 h: 30.1 (0.1) % | Te % (SEM) 4 h: 41.8 (1.7) %

Te % (SEM) 2 h: 14.3 (0.8) % | Te % (SEM) 4 h: 29.0 (0.1) %
Compound: Caffeoylshikimic acid

Te % (SEM) 2 h (human, 2 h, 30 µg/mL): 33.0 (1.9)/39.9 (1.4) % | Te % (SEM) 4 h (human, 4 h, 30 µg/mL): 62.9 (0.3)/67.9(1.3) % | Te % (SEM) 2 h [1]: 33.0 (1.9)/39.9 (1.4) % | Te % (SEM) 4 h [2]: 62.9 (0.3)/67.9(1.3) %
Compound: O=C(O)c1cc(O)c(O)c(O)c1 [Gallic acid]

Compound: CC(CC(=O)CC(C)C1CC(O)C2(C)C3=C(C(=O)CC12C)C1(C)CCC(O)C(C)(CO)C1CC3)C(=O)O (stereo not drawn) [Ganolucidic acid C]
Te % (SEM) 2 h [1]: 11.7 (0.7) % | Te % (SEM) 4 h [2]: 15.6 (0.3) %

Compound: Farnesene
Te % (SEM) 2 h: 46.0 (2.1) % | Te % (SEM) 4 h: 50.9 (3.1) %

Compound: COc1ccc([C@@H]2CC(=O)c3c(O)cc(O)cc3O2)cc1O [Hesperetin]
Te % (SEM) 2 h (human, 2 h, 24 µg/mL): 65.5 (4.8) % | Te % (SEM) 4 h (human, 4 h, 24 µg/mL): 67.2 (3.6) %

Compound: O=c1c(O)c(-c2ccc(O)cc2)oc2cc(O)cc(O)c12 [Kaempferol]
Te % (SEM) 2 h (human, 2 h, 24 µg/mL): 31.5 (1.1) % | Te % (SEM) 4 h (human, 4 h, 24 µg/mL): 36.5 (2.2) %

Te % (SEM) 2 h [1]: 45.1 (3.8) % | Te % (SEM) 4 h [2]: 71.7 (3.2) %
Compound: O=C(O)c1ccc(O)c(O)c1 [Protocatechuic acid]

Compound: CC[C@H](/C=C/[C@@H](C)[C@H]1CC[C@H]2[C@@H]3CC=C4C[C@@H](O)CC[C@]4(C)[C@H]3CC[C@]12C)C(C)C [Stigmasterol]
Te % (SEM) 2 h (human): 40.4 (2.2) % | Te % (SEM) 4 h (human): 64.5 (0.4) %

Compound: C[C@H]1[C@H](C)CC[C@]2(CO)CC[C@]3(C)C(=CC[C@@H]4[C@@]5(C)CC[C@H](O)C(C)(C)[C@@H]5CC[C@]43C)[C@H]12 (single isomer, unassigned) [Uvaol Isomer I, Uvaol]
Te % (SEM) 2 h (human): 3.3 (0.1) % | Te % (SEM) 4 h (human): 38.8 (3.2) %

Compound: C[C@@H]1O[C@@H](OC[C@H]2O[C@@H](Oc3c(-c4ccc(O)c(O)c4)oc4cc(O)cc(O)c4c3=O)[C@H](O)[C@@H](O)[C@@H]2O)[C@H](O)[C@H](O)[C@H]1O [Rutin]
Detection / transport to brain side of HBMEC-BBB model: poor transport trough the BBB

Te % (SEM) 2 h [1]: 33.4 (1.9) % | Te % (SEM) 4 h [2]: 39.6 (1.9) %
Compound: C[C@H]1[C@H](C)CC[C@]2(C(=O)O)CC[C@]3(C)C(=CC[C@@H]4[C@@]5(C)C[C@@H](O)[C@H](O)C(C)(C)[C@@H]5CC[C@]43C)[C@H]12 [Corosolic acid]

Compound: C=C(C)[C@@H]1CCC2=CCC[C@@H](C)[C@]2(C)C1 [Valencene]
Te % (SEM) 2 h: 51.9 (4.2) %

Compound: C=C(C)C1CCC2(C)OC2C1 (stereo not drawn) [Limonene Epoxide]
Te % (SEM) 2 h: 19.5 (1.2) % | Te % (SEM) 4 h: 42.4 (3.2) %

Compound: O=C(/C=C/c1ccc(O)c(O)c1)c1ccc(O)cc1O [Butein]
Te % (SEM) 2 h [1]: 27.5 (2.0) % | Te % (SEM) 4 h [2]: 36.3 (2.6) %

Compound: COc1cc(C(=O)O)ccc1O [Vanillic acid]
Te % (SEM) 2 h [1]: 38.9 (1.2) % | Te % (SEM) 4 h [2]: 42.2 (0.7) %

Compound: C[C@@H]1CC[C@@H]2[C@@H]1[C@H]1[C@@H](CC[C@@]2(C)O)C1(C)C [(-)-Globulol]
Te % (SEM) 2 h: 44.1 (3.6) %

Compound: O=Cc1ccc(O)c(O)c1 [Protocatechuic aldehyde]
Te % (SEM) 2 h [1]: 20.3 (1.5) % | Te % (SEM) 4 h [2]: 78.2 (5.7) %

Compound: CC[C@@H](CC[C@@H](C)[C@H]1CC[C@H]2[C@@H]3CC=C4C[C@@H](O)CC[C@]4(C)[C@H]3CC[C@]12C)C(C)C [γ-Sitosterol]
Te % (SEM) 2 h: 12.9 (0.6)/11.3 (0.5) % | Te % (SEM) 4 h: 19.2 (1.3)/12.1 (0.6) %

Compound: CC(=O)OC(C)(C)[C@@H]1CC[C@@]2(C)CO[C@]3(C)C=CO[C@]23C1 [Phytuberin]
Te % (SEM) 2 h: 33.4 (1.5) % | Te % (SEM) 4 h: 79.6 (2.2) %

Te % (SEM) 2 h: 1.9 (0.1) % | Te % (SEM) 4 h: 26.2 (1.0) %
Compound: Tocospiro B

Compound: C=C1CCC[C@]2(C)CC[C@H]3C(C)(C)C[C@]132 [β-Panasinsene]
Te % (SEM) 2 h: 33.4 (1.5) % | Te % (SEM) 4 h: 34.8 (1.0) %
